From patent US7014856B1, “Ganglioside-KLH conjugate vaccines plus OS-21” (Sloan-Kettering Institute for Cancer Research, priority 1993, dated 2006)
Several values for one entry are separate records, joined by “and”; a condition that tells them apart may be missing. Identical values can stand only once. Entries after “also recorded” stand apart in the source; their conditions may differ.

Assays:
QS-21 = assay: ELISA for antibodies to QS-21; type: in vivo, human; details: after immunizations
Description: (§1) Enzyme-linked Immunosorbent Assay (ELISA) were performed as previously described for gangliosides (5). […] The titer was defined as the highest dilution yielding a corrected absorbance of 0.1 or greater. Immunostaining of gangliosides with monoclonal antibodies or human sera was performed after spotting on nitrocellulose strips as previously described (22). […] Twenty-five micrograms of each were diluted in 0.05 ml PBS and administered intradermally. Results were interpreted as described previously (5).

[1] = system: mouse, cat and Rhesus monkey; details: doses as high as 125 ug per mouse; cited from earlier work
T antigen-KLH = assay: Preclinical adjuvant studies with KLH-conjugate vaccines such as T antigen-KLH; type: in vivo, mice
melanoma patients [2] = details: outpatient setting, s.c. with GM2-KLH
Description: Melanoma patients with AJCC Stage III or IV disease were considered eligible if all evidence of metastatic disease had been rejected within the last 8 months. None of the patients had received prior chemotherapy or radiation therapy. Patients were evaluated for toxicity at the time of each vaccination. In addition, patients were instructed to measure local reactions and to take their temperature.
The GM2/KLH solar ratio was approximately 800/1 and was supplied at a concentration of 0.57 mg conjugate per 0.5 ml normal saline. This represented one patient dose and contained 70 ug GM2, 500 ug KLH and 0.5 ml normal saline. QS-21 adjuvant, containing a saponin component isolated from Quillaja saponaria Molina tree bark, was provided by Cambridge Biotech Corp. (Worcester, Mass.). The purity of the QS-21 was determined to be ≧98% by analytical reverse phase HPLC. […] The vaccine (final volume 0.75 ml) was vortexed for 2–3 minutes and administered within 15 min. Four vaccinations were administered subcutaneously at two week intervals followed by two more at eight week intervals. Initially 12 patients were treated, 3 at each of the 4 QS-21 doses. […] Cyclophosphamide (Cytoxan, Mead Johnson and Co., Evansville, Id.) 200 mg/M^2 was administered IV to all patients 3–6 days prior to the first vaccination.

GM2 [3] = assay: ELISA for GM2 antibodies in patients receiving GM2-KLH conjugate vaccines (third series); type: in vivo, human
Description: Four vaccinations were administered intradermally into extremities with intact lymphatic drainage at two-week intervals, followed by two additional vaccinations at eight week intervals. Cyclophosphamide (Cytoxan, Mead Johnson and Co., Evansville, Ind.) 200 mg/m2 was administered intravenously to all patients 4 to 6 days prior to the first vaccination.
(§2) ELISA was performed as previously described (6). To control for nonspecific “stickiness”, immune sera were also tested on plates which were processed identically but to which no ganglioside had been added, and the reading was subtracted from the value obtained in the presence of ganglioside. The titer was defined as the highest dilution yielding a corrected absorbance of 0.1 or greater. Immunostaining of gangliosides with monoclonal antibodies or human sera was performed after spotting on nitrocellulose strips (14) or separation on HPTLC silica gel glass plates as previously described (3). Plates were developed in chloroform/methanol/water (0.25% CaCl2) 50:40:10 (v/v), and gangliosides were visualized by staining with resorcinol/HCl reagent or monoclonal antibodies.

patients = assay: Toxicity in patients treated earlier with GM2 or GM2-KLH vaccines; type: in vivo, human
GM2 [4] = assay: Dot blot immune stain against GM2 (fourth series); type: in vivo, human; set-up: key: Reactions were graded 0, 1+, 2+ or 3+; Reactions were graded 0, 1+, 2+ or 3+; Reactions were graded 0, 1+, 2+ or 3+; Reactions were graded 0, 1+, 2+ or 3+
Description: as §1

KLH [5] = assay: ELISA for KLH antibodies (third series); type: in vivo, human
ganglioside GM2 = assay: Peak antibody titer against ganglioside GM2 by ELISA (Table 2); type: in vivo, human; details: peak titer against GM2 after immunization
GM2 [6] = assay: ELISA titer against GM2 (fourth series); type: in vivo, human
Description: as §1

GM2 [7] = assay: Dot blot immune stain for GM2 antibodies (third series); type: in vivo, human
Description: as §2

KLH [8] = assay: IgG ELISA titer against KLH (fourth series); type: in vivo, human; details: No adjuvant
Description: as §1

melanoma patients [9] = details: six patients per group
melanoma patients [10] = assay: Delayed-type hypersensitivity skin tests with GM2, GM2-HSA and KLH; type: in vivo, human; details: 25 micrograms intradermally at the fifth vaccination; 24 and 48 hours
Description: as §1

QS-21
antibodies against QS-21 (QS-21): No antibodies against QS-21 were detected; also recorded: no significant increase in antibody to QS-21
toxicity [1]: no clear toxicity
DTH (T antigen-KLH; mice): potent DTH
IgG antibody titers (T antigen-KLH; most mice, KLH-conjugate vaccine with QS-21): over 1/4000
probable MTD per vaccination (melanoma patients [2]): 200 µg

11^3NeuAc-GgOse3Cer-keyhole limpet hemocyanin (KLH) [GM2-KLH]
Reciprocal GM2 antibody titers before immunization IgG (GM2 [3]; before immunization): 0
median titers: reciprocal GM2 antibody titer after immunization (Peak) IgG (GM2 [3]; median, after immunization): 0
median titers: reciprocal GM2 antibody titer after immunization (Peak) IgM (GM2 [3]; median, after immunization): 80
median titers: reciprocal GM2 antibody titer before immunization IgG (GM2 [3]; median, before immunization): 0
median titers: reciprocal GM2 antibody titer before immunization IgM (GM2 [3]; median, before immunization): 0
toxicity attributed to the substance (patients): pain and tenderness at vaccines sites lasting 48 hours
median IgM dot blot reaction against GM2 (GM2 [4]; GM2-KLH alone): 2+
PEAK DOT BLOT IMMUNE SYSTEM RESPONSE AGAINST GM2 IgG (GM2 [4]; No adjuvant): 0 and 1+
PEAK DOT BLOT IMMUNE SYSTEM RESPONSE AGAINST GM2 IgM (GM2 [4]; No adjuvant): 2+ and 1+, and 0 and 3+,
median IgG dot blot reaction against GM2 (GM2 [4]; no QS-21): 0
median titers: reciprocal KLH antibody titer after immunization (Peak) IgG (KLH [5]): 120
Antibody Titers by Elisa IgG (ganglioside GM2): 0
Reciprocal median IgM antibody titer against GM2 (GM2 [6]; GM2-KLH alone): 80
median IgG antibody titer against GM2 (GM2 [6]; GM2-KLH alone): 0
patients who produced IgM antibody (GM2 [6]; GM2-KLH alone): Five of 6
patients who produced IgG antibody (of low titer) (GM2 [6]; GM2-KLH alone, 6 patients): 1
PEAK ELISA TITER AGAINST GM2 Pretreatment IgG (GM2 [6]; No adjuvant): 0 (6)
induction of IgM and IgG antibody titers, 7 μg GM2 dose versus 70 μg dose (GM2 [6]; patients with advanced disease, 100 μg QS-21): equally as effective
patients with 3+ reactivity of IgM antibodies against GM2 (GM2 [7]): two of six
IgG ELISA TITER AGAINST KLH Pretreatment (KLH [8]): 0 (6)
local or systemic side effects (melanoma patients [9]): No local or systemic toxicity

II^3NeuAc-GgOse3Cer [GM2, reference compound]
toxicity attributed to the substance (patients): No toxicity
reaction at skin test sites (melanoma patients [10]): No erythema or induration
